Values quoted from earlier work in US20250235488A1, “COMPOSITIONS AND METHODS FOR PROVIDING HEMATOPOIETIC FUNCTION” (Fred Hutchinson Cancer Center, priority 2010, published 2025).

Experiments:
[1] = not given; remark: listed apart in the source

## O=NN(CCCl)C(=O)NCCCl [Carmustine]
In vivo
  CSF concentrations as percentage of concurrent plasma concentrations: 15-70%
In vivo, iv
  time after which no intact drug is detectable in plasma: 15 min
[1]
  solubility in alcohol: freely soluble
  solubility in lipids: highly soluble
  solubility in water: slightly soluble

## Nc1ccn([C@@H]2O[C@H](CO)[C@@H](O)[C@@H]2O)c(=O)n1 [Cytarabine]
After rapid IV injection
  plasma half-life, initial phase: about 10 minutes
  plasma half-life, terminal phase: 1 to 3 h
Rapid IV, IM, SQ, IT injection or continuous IV infusion
  dose excreted in the urine within 24 hours: 70-80%
